Structures are written as SMILES. Active and inactive are the calls of the source. The rule behind the calls is not given here.

Series [1] relates to SW-620. The series can be described thus: Growth inhibition of human SW620 cells after 96 hrs by SRB assay. It is filed as functional, cell-based. The note with it: SW-620, 96 h.
A further series has as its system SK-CO-1. The series can be described thus: Growth inhibition of human SKCO1 cells after 96 hrs by SRB assay. Format: functional, cell-based. Conditions: SK-CO-1, 96 h.
The target in series [2] is T1, Mitogen-activated protein kinase kinase kinase 7 (Homo sapiens) (UniProt O43318).
T1 sequence (whole entry): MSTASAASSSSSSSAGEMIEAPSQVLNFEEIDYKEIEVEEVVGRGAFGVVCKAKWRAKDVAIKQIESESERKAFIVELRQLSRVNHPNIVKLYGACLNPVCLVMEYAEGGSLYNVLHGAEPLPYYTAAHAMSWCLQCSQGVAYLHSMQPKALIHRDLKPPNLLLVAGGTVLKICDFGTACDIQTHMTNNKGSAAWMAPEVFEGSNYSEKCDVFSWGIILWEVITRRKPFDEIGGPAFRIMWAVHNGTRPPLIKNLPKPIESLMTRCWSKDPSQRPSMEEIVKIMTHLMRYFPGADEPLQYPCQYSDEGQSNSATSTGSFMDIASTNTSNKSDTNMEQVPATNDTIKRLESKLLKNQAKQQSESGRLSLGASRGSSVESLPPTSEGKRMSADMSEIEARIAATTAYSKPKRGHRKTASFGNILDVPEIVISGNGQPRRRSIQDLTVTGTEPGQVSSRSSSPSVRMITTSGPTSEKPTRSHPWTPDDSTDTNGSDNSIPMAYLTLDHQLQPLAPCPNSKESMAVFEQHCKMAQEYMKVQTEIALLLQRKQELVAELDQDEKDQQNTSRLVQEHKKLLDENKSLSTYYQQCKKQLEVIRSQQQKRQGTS
Briefly: Inhibition of TAK1 (unknown origin) at 1 uM by LanthaScreen Eu kinase binding assay relative to control.

For series [3], the target named is T1, Mitogen-activated protein kinase kinase kinase 7 (Homo sapiens). Briefly: Inhibition of TAK1 (unknown origin) at 0.1 uM by LanthaScreen Eu kinase binding assay relative to control.
Series [4] deals with SW-620. Briefly: Antitumor activity against human SW620 cells xenografted in CAnN.Cg-Foxnlnu/Crljbgi nude mouse assessed as tumor growth inhibition at 30 mg/kg, po dosed daily for 14 consecutive days. It is filed as functional, organism-based.
Series [5] is described as follows: Toxicity in CAnN.Cg-Foxnlnu/Crljbgi nude mouse xenografted with human SW620 cells assessed as weight loss at 30 mg/kg, po dosed daily for 14 consecutive days. It is filed as organism-based. Conditions: in vivo.
The subject of a further series is LoVo. Briefly: Growth inhibition of human LoVo cells after 96 hrs by SRB assay. Format: functional, cell-based.
The nature of series [6]: AUC (0 to 7 hrs) in ICR mouse at 10 mg/kg, po administered as single dose or 3 mg/kg, iv by LC-MS/MS analysis. It is filed as ADME, organism-based. The note with it: in vivo.
Series [7] is described as follows: Stability in human plasma assessed as parent compound remaining after 6 hrs by LC-MS/MS analysis. Format: ADME, cell-free. The note with it: read-out: Stability.
Series [8] can be described thus: Oral bioavailability in ICR mouse at 10 mg/kg administered as single dose by LC-MS/MS analysis. It is filed as ADME, organism-based. Conditions: in vivo.
A short description of series [9]: Stability in mouse liver microsomes assessed as parent compound remaining after 60 mins in presence of NADPH by HPLC analysis. It is filed as ADME, Microsome. Conditions: read-out: Stability.
Series [10] can be described thus: Stability in mouse plasma assessed as parent compound remaining after 6 hrs by LC-MS/MS analysis. It is filed as ADME, cell-free. Conditions: read-out: Stability.
Series [11] is described as follows: Half life in ICR mouse at 10 mg/kg, po administered as single dose or 3 mg/kg, iv by LC-MS/MS analysis. It is filed as ADME, organism-based. The note with it: in vivo.
A short description of series [12]: Stability in human liver microsomes assessed as parent compound remaining after 60 mins in presence of NADPH by HPLC analysis. Format: ADME, Microsome. The note with it: read-out: Stability.
Series [13] is described as follows: Cmax in ICR mouse at 10 mg/kg, po administered as single dose or 3 mg/kg, iv by LC-MS/MS analysis. It is filed as ADME, organism-based. Conditions: in vivo.
For another series, the target named is TAK1/TAB1 (Homo sapiens, UniProt O43318). The series can be described thus: Inhibition of N-terminal His-tagged human TAK1 (1 to 303 amino acids)/human TAB1 (437 to 504 amino acids) expressed in baculovirus expression system using fluorescence-labeled substrate by off-chip mobility shift assay.
Sequence of TAK1/TAB1 (Q15750 whole entry, one chain of several, the tested form may be a part): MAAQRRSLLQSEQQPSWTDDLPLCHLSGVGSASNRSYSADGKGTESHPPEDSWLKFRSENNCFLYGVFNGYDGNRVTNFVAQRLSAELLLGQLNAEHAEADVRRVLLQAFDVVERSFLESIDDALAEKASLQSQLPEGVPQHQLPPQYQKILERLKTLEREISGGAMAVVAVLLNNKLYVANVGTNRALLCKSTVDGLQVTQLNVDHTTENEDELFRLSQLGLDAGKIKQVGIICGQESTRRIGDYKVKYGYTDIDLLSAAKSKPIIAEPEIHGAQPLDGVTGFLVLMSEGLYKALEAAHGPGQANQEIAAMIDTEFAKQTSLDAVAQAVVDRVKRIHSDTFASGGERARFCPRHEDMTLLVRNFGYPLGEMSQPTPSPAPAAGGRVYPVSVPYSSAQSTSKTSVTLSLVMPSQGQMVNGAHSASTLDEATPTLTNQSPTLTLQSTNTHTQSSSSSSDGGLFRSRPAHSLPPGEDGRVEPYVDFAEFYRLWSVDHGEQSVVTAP

Consider `CCc1cc(Nc2ncc(F)c(-c3cnc4cccnn34)n2)cc(OCCN2CCC(O)CC2)c1`, for which the IC50 amounted to 38 nM in the series with SW-620 [1], 61 nM in the series with SK-CO-1 and 75 nM with LoVo. Also, the inhibition was 98% in series [2] and 96% in [3]. Moreover, the TGI result in the series with SW-620 [4] is “Active”. The Activity result in [5] is given as “Toxic”.

Take `Cc1cc(C(=O)Nc2cc(C(C)(C)C)nn2-c2ccccc2)ccc1Oc1cnc(NC2CC2)c2nccn12`: the values for the inhibition in [2] and in series [3] were 3% and 4%, respectively.

Turning to `Cc1cc(NC(=O)Nc2cc(C(C)(C)C)nn2-c2cccc(F)c2)ccc1-c1cnc(NC2CC2)c2nccn12`, the inhibition in series [2] amounted to 94%; in series [3], 34%.

As to `Cc1cc(NC(=O)Nc2cc(C(C)(C)C)nn2-c2cccc(C#N)c2)ccc1-c1cnc(NC2CC2)c2ncnn12`, the inhibition was determined as 92% in series [2] and 36% in [3].

As to `Cc1cc(NC(=O)Nc2cc(C(C)(C)C)nn2-c2cccc(Cl)c2)ccc1-c1cnc(NC2CC2)c2ncnn12`, the inhibition turned out to be 74% in series [2] and 18% in series [3].

As to `Cc1cc(NC(=O)Nc2cc(C(C)(C)C)nn2-c2cccc(Cl)c2)ccc1-c1cnc(NC2CC2)c2nccn12`, the values for the inhibition in [2] and in series [3] were 84% and 16%, respectively.

Regarding `Cc1cc(NC(=O)Nc2cc(C(C)(C)C)nn2-c2ccccc2)ccc1Oc1cn2ccnc2c(NC2CC2)n1`, the inhibition in series [2] stood at 30%; in series [3] it was 0%.

Consider `Cc1cc(NC(=O)Nc2cc(C(C)(C)C)nn2-c2ccccc2)ccc1-c1cnc(NC2CC2)c2ncnn12`, for which the inhibition in series [2] stood at 80%; in [3] it was 24%.

As to `Cc1cc(NC(=O)Nc2cc(C(C)(C)C)nn2-c2cccc(C#N)c2)ccc1Oc1cnc(NC2CC2)c2nccn12`, the inhibition was determined as 76% in [2] and 0% in series [3].

In the case of `Cc1cc(NC(=O)Nc2cc(C(C)(C)C)nn2-c2cccc([N+](=O)[O-])c2)ccc1-c1cnc(NC2CC2)c2ncnn12`, the inhibition in [2] turned out to be 90%; in series [3], 26%.

Turning to `Cc1ccc(C(=O)Nc2cc(C(C)(C)C)nn2-c2ccccc2)cc1Oc1cnc(NC2CC2)c2nccn12`, the inhibition in [2] and in [3] was 0% in each case.

With `Cc1cc(NC(=O)Nc2cc(C(C)(C)C)nn2-c2cccnc2)ccc1-c1cnc(NC2CC2)c2nccn12`, the inhibition in series [2] turned out to be 89%; in [3], 43%.

In the case of `Cc1cc(NC(=O)Nc2cc(C(C)(C)C)nn2-c2cccc(C#N)c2)ccc1-c1cnc(NC2CC2)c2nccn12`, the AUC(0-t) in series [6] is 360 ng·h/mL. Further, the remaining at 6 h in series [7] turned out to be 100%; in [10], 88%. This compound also yielded a bioavailability in [8] of 3.1%. The values for the IC50 in the series with SW-620 [1] and on TAK1/TAB1 were 169 nM and 41 nM, respectively. Further, the remaining at 1 h in series [9] came to 37%; in series [12], 33%. The compound further gave a half-life in series [11] of 2.4 h. Besides, the inhibition in series [2] was determined as 97%; in series [3], 49%. The compound further registered a Cmax in series [13] of 231 ng/mL.

For `Cc1cc(NC(=O)Nc2cc(C(C)(C)C)nn2-c2ccc(F)cc2)ccc1-c1cnc(NC2CC2)c2nccn12`, the inhibition was found to be 69% in [2] and 0% in series [3].

Consider `Cc1ccc(-n2nc(C(C)(C)C)cc2NC(=O)Nc2ccc(-c3cnc(NC4CC4)c4nccn34)c(C)c2)cc1`, for which the inhibition in [2] is 91%; in series [3], 7%.

In the case of `Cc1cc(NC(=O)Nc2cc(C(C)(C)C)nn2-c2ccc(C#N)cc2)ccc1-c1cnc(NC2CC2)c2nccn12`, the inhibition was found to be 84% in series [2] and 19% in series [3].

On to `Cc1cc(NC(=O)Nc2cc(C(C)(C)C)nn2-c2ccccc2)ccc1Oc1cnc(NC2CC2)c2nccn12`, for which the inhibition in [2] is 90%; in [3], 20%.

The values above are taken from ChEMBL document CHEMBL4411291, “Synthesis and anti-tumor activity of imidazopyrazines as TAK1 inhibitors” (Eur J Med Chem, 2019).
